# Measurements as given in patent US10597388B2, “Pyridazinone herbicides” (FMC CORPORATION, priority 2014, dated 2020).
# Tests used:
# Experiment in all cases: Test D controlled growth environment herbicide test, pre- and postemergence
# Assay type in all cases: in vivo
# [1] = system: barley, winter (winter barley, Hordeum vulgare)
# How it was run: (§1)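 Species sown in silt loam and sprayed preemergence, or grown in peat-based medium to 2–18 cm (1- to 4-leaf stage) and sprayed postemergence, with compounds in non-phytotoxic solvent plus surfactant. Visual injury scored versus controls after 14–21 d in a controlled environment, 0 (no effect) to 100 (complete control).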
# [2] = system: wheat, winter (winter wheat, Triticum aestivum)
# How it was run: as §1
# [3] = system: chickweed (common chickweed, Stellaria media)
# How it was run: as §1
# [4] = system: field poppy (Papaver rhoeas)
# How it was run: as §1
# [5] = system: chamomile (scentless chamomile, Matricaria inodora)
# How it was run: as §1
# [6] = system: barley, spring (spring barley, Hordeum vulgare)
# How it was run: as §1
# [7] = system: blackgrass (Alopecurus myosuroides)
# How it was run: as §1
# [8] = system: deadnettle (henbit deadnettle, Lamium amplexicaule)
# How it was run: as §1
# [9] = system: ryegrass, Italian (Italian ryegrass, Lolium multiflorum)
# How it was run: as §1
# [10] = system: bromegrass, downy (downy bromegrass, Bromus tectorum)
# How it was run: as §1
# [11] = system: foxtail, green (green foxtail, Setaria viridis)
# How it was run: as §1
# [12] = system: wheat, spring (spring wheat, Triticum aestivum)
# How it was run: as §1
# [13] = system: lambsquarters (Chenopodium album)
# How it was run: as §1
# [14] = Postemergence, 31 g ai/ha, scale 0 to 100 (0 no effect, 100 complete control)
# [15] = Postemergence, 125 g ai/ha, visual rating on scale 0 (no effect) to 100 (complete control), 14 to 21 d
# [16] = Postemergence, 250 g ai/ha, scale 0 to 100 (0 no effect, 100 complete control)
# [17] = Preemergence, 62 g ai/ha, scale 0 to 100 (0 no effect, 100 complete control)
# [18] = Preemergence, 125 g ai/ha, scale 0 to 100 (0 no effect, 100 complete control)
# [19] = Preemergence, 250 g ai/ha, scale 0 to 100 (0 no effect, 100 complete control)
# [20] = postemergence, 62 g ai/ha, scale 0 to 100, 0 no effect, 100 complete control
structure (smiles),measurement,setting,value
CCC(=O)Oc1c(C)nn(C)c(=O)c1-c1c(C)sc2ccc(C)cc12 [Compound 42],"Plant response rating, Barley, Winter",[1]; [14],0
same,"Plant response rating, Barley, Winter",[1]; [15],0
same,"Plant response rating, Barley, Winter",[1]; [16],10
same,"Plant response rating (scale of 0 to 100), Barley, Winter","[1]; Preemergence, 31 g ai/ha",0
same,"Plant response rating, Barley, Winter",[1]; [17],0
same,"Plant response rating, Barley, Winter",[1]; [18],5
same,"Barley, Winter plant response rating",[1]; [19],15
same,"Plant response rating, Barley, Winter",[1]; [20],0
same,"Wheat, Winter plant response rating",[2]; [14],0
same,"Plant response rating, Wheat, Winter",[2]; [15],10
same,"Plant response rating, Wheat, Winter",[2]; [16],15
same,"Plant response rating (scale of 0 to 100), Wheat, Winter","[2]; Preemergence, 31 g ai/ha",0
same,"Plant response rating, Wheat, Winter",[2]; [17],0
same,"Plant response rating, Wheat, Winter",[2]; [18],5
same,"Plant response rating, Wheat, Winter",[2]; [19],15
same,"Plant response rating, Wheat, Winter",[2]; [20],5
same,Chickweed plant response rating,[3]; [14],95
same,"Plant response rating, Chickweed",[3]; [15],100
same,"Plant response rating, Chickweed",[3]; [16],100
same,"Plant response rating (scale of 0 to 100), Chickweed","[3]; Preemergence, 31 g ai/ha",100
same,"Plant response rating, Chickweed",[3]; [17],100
same,"Plant response rating, Chickweed",[3]; [18],100
same,"Plant response rating, Chickweed",[3]; [19],100
same,"Plant response rating, Chickweed",[3]; [20],100
same,Field Poppy plant response rating,[4]; [14],65
same,"Plant response rating, Field Poppy",[4]; [15],100
same,"Plant response rating, Field Poppy",[4]; [16],100
same,"Plant response rating (scale of 0 to 100), Field Poppy","[4]; Preemergence, 31 g ai/ha",100
same,"Plant response rating, Field Poppy",[4]; [17],100
same,"Plant response rating, Field Poppy",[4]; [18],100
same,"Plant response rating, Field Poppy",[4]; [19],100
same,"Plant response rating, Field Poppy",[4]; [20],85
same,Chamomile plant response rating,[5]; [14],75
same,"Plant response rating, Chamomile",[5]; [15],100
same,"Plant response rating, Chamomile",[5]; [16],100
same,"Plant response rating (scale of 0 to 100), Chamomile","[5]; Preemergence, 31 g ai/ha",95
same,"Plant response rating, Chamomile",[5]; [17],100
same,"Plant response rating, Chamomile",[5]; [18],100
same,"Plant response rating, Chamomile",[5]; [19],100
same,"Plant response rating, Chamomile",[5]; [20],70
same,"Plant response rating, Barley, Spring",[6]; [14],0
same,"Plant response rating, Barley, Spring",[6]; [15],5
same,"Plant response rating, Barley, Spring",[6]; [16],10
same,"Plant response rating (scale of 0 to 100), Barley, Spring","[6]; Preemergence, 31 g ai/ha",0
same,"Plant response rating, Barley, Spring",[6]; [17],0
same,"Plant response rating, Barley, Spring",[6]; [18],0
same,"Barley, Spring plant response rating",[6]; [19],5
same,"Plant response rating, Barley, Spring",[6]; [20],0
same,Blackgrass plant response rating,[7]; [14],75
same,"Plant response rating, Blackgrass",[7]; [15],80
same,"Plant response rating, Blackgrass",[7]; [16],85
same,"Plant response rating (scale of 0 to 100), Blackgrass","[7]; Preemergence, 31 g ai/ha",80
same,"Plant response rating, Blackgrass",[7]; [17],80
same,"Plant response rating, Blackgrass",[7]; [18],95
same,Blackgrass plant response rating,[7]; [19],100
same,"Plant response rating, Blackgrass",[7]; [20],75
same,Deadnettle plant response rating,[8]; [14],5
same,"Plant response rating, Deadnettle",[8]; [15],35
same,"Plant response rating, Deadnettle",[8]; [16],55
same,"Plant response rating (scale of 0 to 100), Deadnettle","[8]; Preemergence, 31 g ai/ha",0
same,"Plant response rating, Deadnettle",[8]; [17],0
same,"Plant response rating, Deadnettle",[8]; [18],25
same,"Plant response rating, Deadnettle",[8]; [19],15
same,"Plant response rating, Deadnettle",[8]; [20],25
same,"Ryegrass, Italian plant response rating",[9]; [14],75
same,"Plant response rating, Ryegrass, Italian",[9]; [15],85
same,"Plant response rating, Ryegrass, Italian",[9]; [16],85
same,"Plant response rating (scale of 0 to 100), Ryegrass, Italian","[9]; Preemergence, 31 g ai/ha",95
same,"Plant response rating, Ryegrass, Italian",[9]; [17],100
same,"Plant response rating, Ryegrass, Italian",[9]; [18],100
same,"Plant response rating, Ryegrass, Italian",[9]; [19],100
same,"Plant response rating, Ryegrass, Italian",[9]; [20],80
same,"Bromegrass, Downy plant response rating",[10]; [14],0
same,"Plant response rating, Bromegrass, Downy",[10]; [15],40
same,"Plant response rating, Bromegrass, Downy",[10]; [16],70
same,"Plant response rating (scale of 0 to 100), Bromegrass, Downy","[10]; Preemergence, 31 g ai/ha",45
same,"Plant response rating, Bromegrass, Downy",[10]; [17],55
same,"Plant response rating, Bromegrass, Downy",[10]; [18],70
same,"Plant response rating, Bromegrass, Downy",[10]; [19],90
same,"Plant response rating, Bromegrass, Downy",[10]; [20],20
same,"Foxtail, Green plant response rating",[11]; [14],35
same,"Plant response rating, Foxtail, Green",[11]; [15],65
same,"Plant response rating, Foxtail, Green",[11]; [16],80
same,"Plant response rating (scale of 0 to 100), Foxtail, Green","[11]; Preemergence, 31 g ai/ha",30
same,"Plant response rating, Foxtail, Green",[11]; [17],65
same,"Plant response rating, Foxtail, Green",[11]; [18],100
same,"Plant response rating, Foxtail, Green",[11]; [19],100
same,"Plant response rating, Foxtail, Green",[11]; [20],50
same,"Wheat, Spring plant response rating",[12]; [14],0
same,"Plant response rating, Wheat, Spring",[12]; [15],15
same,"Plant response rating, Wheat, Spring",[12]; [16],20
same,"Plant response rating (scale of 0 to 100), Wheat, Spring","[12]; Preemergence, 31 g ai/ha",0
same,"Plant response rating, Wheat, Spring",[12]; [17],0
same,"Plant response rating, Wheat, Spring",[12]; [18],0
same,"Plant response rating, Wheat, Spring",[12]; [19],20
same,"Plant response rating, Wheat, Spring",[12]; [20],10
same,Lambsquarters plant response rating,[13]; [14],80
same,"Plant response rating, Lambsquarters",[13]; [15],85
same,"Plant response rating, Lambsquarters",[13]; [16],90
same,"Plant response rating (scale of 0 to 100), Lambsquarters","[13]; Preemergence, 31 g ai/ha",98
same,"Plant response rating, Lambsquarters",[13]; [17],100
same,"Plant response rating, Lambsquarters",[13]; [18],100
same,"Plant response rating, Lambsquarters",[13]; [19],100
same,"Plant response rating, Lambsquarters",[13]; [20],85
